From ChEMBL document CHEMBL6109079, “Discovery of novel pyrimidinetrione derivatives as DprE1 inhibitors with potent antimycobacterial activities” (Eur J Med Chem, 2025)
In brackets after ≈: the same amount, converted by molar mass.

What was measured:
[1] = Inhibition of DprE1 (unknown origin) preincubated with FAD followed by compound addition and measured after 2 mins by fluorescence based microplate reader; parameters: species or system Bacteria
[2] = test system: Mycobacterium tuberculosis; experiment: Antibacterial activity against Mycobacterium tuberculosis H37Ra assessed as inhibition of bacterial growth incubated for 1 weeks by absorbance based microplate reader; type: functional; conditions: 168 h
[3] = Selectivity index, ratio of CC50 for cytotoxicity against human THP-1 cells to MIC50 for antibacterial activity against Mycobacterium tuberculosis H37Ra; type: toxicity, cell-based; conditions: read-out: Selectivity Index
[4] = test system: Mycobacterium tuberculosis; experiment: Antibacterial activity against Mycobacterium tuberculosis H37Ra assessed as inhibition of bacterial growth at 50 uM incubated for 3 weeks by absorbance based microplate reader relative to control; type: functional; conditions: 504 h
[5] = test system: Mycobacterium tuberculosis; experiment: Antibacterial activity against Mycobacterium tuberculosis H37Ra assessed as inhibition of bacterial growth at 10 uM incubated for 3 weeks by absorbance based microplate reader relative to control; type: functional; conditions: 504 h
[6] = test system: Mycobacterium tuberculosis; experiment: Antibacterial activity against Mycobacterium tuberculosis H37Rv assessed as inhibition of bacterial growth at 10 uM incubated for 3 weeks by absorbance based microplate reader relative to control; type: functional; conditions: 504 h
[7] = Cytotoxicity against human THP-1 cells assessed as cell viability at 200 uM incubated for 24 hrs by CCK-8 assay relative to control; type: toxicity, cell-based; conditions: read-out: Activity
[8] = Cytotoxicity against human THP-1 cells assessed as reduction in cell viability incubated for 24 hrs by CCK-8 assay; type: toxicity, cell-based

## CC[C@@H](C)N1C(=O)NC(=O)/C(=C\NNC(=O)c2ccccc2)C1=O
[1]
  IC50: 13.4 µM

## O=C1NC(=O)N(C2CC2)C(=O)/C1=C/NNC(=O)c1ccnc2ccccc12
[1]
  IC50: 14.3 µM

## O=C1NC(=O)N(Cc2ccccc2)C(=O)/C1=C/NNC(=O)c1cccc2ncccc12
[1]
  IC50: 12.6 µM

## CC(=O)NC[C@H]1CN(c2ccc(N3CCOCC3)c(F)c2)C(=O)O1 [LINEZOLID]
[2]
  MIC50: 1.67 µM (≈ 0.563 µg/mL)
[3]
  selectivity ratio: > 120

## CC(=O)Nc1cccc(C(=O)NN/C=C2\C(=O)NC(=O)N(Cc3ccccc3)C2=O)c1
[1]
  IC50: 20.7 µM

## O=C1NC(=O)N(C2CCCCC2)C(=O)/C1=C/NNC(=O)c1ccncc1
[1]
  IC50: 16.7 µM
[4]
  inhibition at 50 µM: 100%
[2]
  MIC50: 5.34 µM (≈ 1.91 µg/mL)
[5]
  inhibition at 10 µM: 100%
[6]
  inhibition at 10 µM: 100%
[7]
  viability at 24 h, 200 µM: 100%
[8]
  CC50 at 24 h: > 200 µM
[3]
  selectivity ratio: > 37.5

## O=C1NC(=O)N(CCc2ccccc2)C(=O)/C1=C/NNC(=O)c1cccnc1
[1]
  IC50: 24.8 µM

## CCN1C(=O)NC(=O)/C(=C\NNC(=O)c2ccncc2)C1=O
[1]
  IC50: 52.3 µM
[4]
  inhibition at 50 µM: 100%
[2]
  MIC50: 1.36 µM (≈ 0.414 µg/mL)
[5]
  inhibition at 10 µM: 100%
[6]
  inhibition at 10 µM: 100%
[7]
  viability at 24 h, 200 µM: 100%
[8]
  CC50 at 24 h: > 200 µM
[3]
  selectivity ratio: > 147

## O=C(CO)NN/C=C1\C(=O)NC(=O)N(Cc2ccccc2)C1=O
[1]
  IC50: > 100 µM

## O=C1NC(=O)N(Cc2ccccc2)C(=O)/C1=C/NNC(=O)c1ccc2ccccc2c1
[1]
  IC50: 10.8 µM

## CC[C@@H](C)N1C(=O)NC(=O)/C(=C\NNC(=O)c2ccncc2)C1=O
[1]
  IC50: 50.4 µM
[4]
  inhibition at 50 µM: 100%
[2]
  MIC50: 2.5 µM (≈ 0.83 µg/mL)
[5]
  inhibition at 10 µM: 100%
[6]
  inhibition at 10 µM: 100%
[7]
  viability at 24 h, 200 µM: 100%
[8]
  CC50 at 24 h: > 200 µM
[3]
  selectivity ratio: > 68.1

## O=C(Cc1ccccc1)NN/C=C1\C(=O)NC(=O)N(Cc2ccccc2)C1=O
[1]
  IC50: 12.3 µM

## COCC(=O)NN/C=C1\C(=O)NC(=O)N(Cc2ccccc2)C1=O
[1]
  IC50: > 100 µM

## O=C1NC(=O)N(Cc2ccccc2)C(=O)/C1=C/NNC(=O)c1ccncc1
[1]
  IC50: 10.2 µM
[4]
  inhibition at 50 µM: 100%
[2]
  MIC50: 3.15 µM (≈ 1.15 µg/mL)
[5]
  inhibition at 10 µM: 100%
[6]
  inhibition at 10 µM: 100%
[7]
  viability at 24 h, 200 µM: 100%
[8]
  CC50 at 24 h: > 200 µM
[3]
  selectivity ratio: > 63.5

## CC(=O)NN/C=C1\C(=O)NC(=O)N(Cc2ccccc2)C1=O
[1]
  IC50: > 100 µM

## O=C1NC(=O)N(Cc2ccccc2)C(=O)/C1=C/NNC(=O)c1cccc(O)c1
[1]
  IC50: 6.49 µM

## O=C1NC(=O)N(C2CCCCC2)C(=O)/C1=C/NNC(=O)c1cccnc1
[1]
  IC50: 30.4 µM

## O=C1NC(=O)N(Cc2ccccc2)C(=O)/C1=C/NNC(=O)c1ccnc2ccccc12
[1]
  IC50: 13.8 µM

## CN1C(=O)NC(=O)/C(=C\NNC(=O)c2ccncc2)C1=O
[1]
  IC50: 50 µM
[4]
  inhibition at 50 µM: 100%
[2]
  MIC50: 1.4 µM (≈ 0.405 µg/mL)
[5]
  inhibition at 10 µM: 100%
[6]
  inhibition at 10 µM: 100%
[7]
  viability at 24 h, 200 µM: 100%
[8]
  CC50 at 24 h: > 200 µM
[3]
  selectivity ratio: > 143

## O=C1NC(=O)N(c2ccccc2)C(=O)/C1=C/NNC(=O)c1cccnc1
[1]
  IC50: 32.1 µM

## O=C1NC(=O)N(Cc2ccccc2)C(=O)/C1=C/NNC(=O)c1cccc2ccccc12
[1]
  IC50: 23.3 µM

## Nc1cccc(C(=O)NN/C=C2\C(=O)NC(=O)N(Cc3ccccc3)C2=O)c1
[1]
  IC50: 4.36 µM

## CC(C)(C)C(=O)NN/C=C1\C(=O)NC(=O)N(Cc2ccccc2)C1=O
[1]
  IC50: > 100 µM

## O=C1NC(=O)N(Cc2ccccc2)C(=O)/C1=C/NNC(=O)c1ccccc1
[1]
  IC50: 7.25 µM
